Activity calls are given as the source filed them.
Columns and labels:
Mu-type opioid receptor = Mu-type opioid receptor (Homo sapiens, UniProt P35372); type: functional, cell-based;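 note: U2OS cells with beta-arrestin recruitment to OPRM1 by beta-gal complementation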
[1] = target: 5-hydroxytryptamine receptor 2A (Mus musculus, UniProt P35363); type: functional, cell-based;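 note: CHO-K1 cells with tagged receptor and beta-arrestin; agonist potency measured as compound-induced activation of the receptor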
Chain of 5-hydroxytryptamine receptor 2A (P35363 whole entry): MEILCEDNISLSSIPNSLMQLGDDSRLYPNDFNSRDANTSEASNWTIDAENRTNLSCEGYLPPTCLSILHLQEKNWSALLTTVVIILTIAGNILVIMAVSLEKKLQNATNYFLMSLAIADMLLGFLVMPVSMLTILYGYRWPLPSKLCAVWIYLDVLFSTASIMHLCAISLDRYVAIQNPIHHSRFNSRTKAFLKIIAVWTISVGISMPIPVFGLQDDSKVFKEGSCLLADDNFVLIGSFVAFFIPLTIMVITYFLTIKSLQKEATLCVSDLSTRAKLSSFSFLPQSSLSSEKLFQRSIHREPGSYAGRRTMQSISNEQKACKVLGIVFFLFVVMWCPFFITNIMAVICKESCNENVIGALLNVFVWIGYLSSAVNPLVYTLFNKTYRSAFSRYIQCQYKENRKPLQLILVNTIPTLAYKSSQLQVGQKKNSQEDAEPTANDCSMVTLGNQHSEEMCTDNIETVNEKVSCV

Cytochrome P450 2C19 = Cytochrome P450 2C19 (Homo sapiens, UniProt P33261); test: Cytochrome panel assay with activity outcomes. Panel member name: p450-cyp2c19 Compounds with AC50 equal or less than 10 uM are considered active; type: functional
Chain of Cytochrome P450 2C19 (P33261 whole entry): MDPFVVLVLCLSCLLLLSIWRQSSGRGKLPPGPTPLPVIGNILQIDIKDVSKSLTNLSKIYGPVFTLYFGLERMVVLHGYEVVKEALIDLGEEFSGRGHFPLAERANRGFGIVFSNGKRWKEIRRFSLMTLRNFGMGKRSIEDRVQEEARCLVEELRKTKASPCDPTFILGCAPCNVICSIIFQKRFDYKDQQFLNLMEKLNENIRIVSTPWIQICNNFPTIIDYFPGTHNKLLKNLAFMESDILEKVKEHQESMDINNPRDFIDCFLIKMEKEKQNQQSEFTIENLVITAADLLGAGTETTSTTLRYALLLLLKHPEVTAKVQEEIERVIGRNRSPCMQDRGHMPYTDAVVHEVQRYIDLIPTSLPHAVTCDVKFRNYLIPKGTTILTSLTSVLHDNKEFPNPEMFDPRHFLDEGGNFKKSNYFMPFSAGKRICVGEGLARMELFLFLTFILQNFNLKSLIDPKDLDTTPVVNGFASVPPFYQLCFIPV

Cytochrome P450 2D6 = Cytochrome P450 2D6 (Homo sapiens, UniProt P10635);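 note: CYP2D6 member of a cytochrome P450 panel assay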
Chain of Cytochrome P450 2D6 (P10635 whole entry): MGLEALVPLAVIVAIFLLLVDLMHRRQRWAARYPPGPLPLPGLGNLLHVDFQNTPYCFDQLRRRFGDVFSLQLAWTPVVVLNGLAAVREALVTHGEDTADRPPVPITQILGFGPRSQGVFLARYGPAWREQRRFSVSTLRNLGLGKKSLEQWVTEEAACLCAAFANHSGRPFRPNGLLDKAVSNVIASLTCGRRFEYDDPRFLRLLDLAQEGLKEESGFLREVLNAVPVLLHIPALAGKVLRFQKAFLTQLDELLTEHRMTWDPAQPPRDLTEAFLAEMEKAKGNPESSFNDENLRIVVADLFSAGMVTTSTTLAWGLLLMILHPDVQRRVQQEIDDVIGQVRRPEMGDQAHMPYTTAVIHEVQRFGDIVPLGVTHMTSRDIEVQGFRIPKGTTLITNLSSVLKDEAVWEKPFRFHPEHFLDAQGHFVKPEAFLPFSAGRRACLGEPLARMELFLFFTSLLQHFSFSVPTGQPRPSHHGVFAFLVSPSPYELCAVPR

[2] = target: T1, Long-chain-fatty-acid--AMP ligase FadD28 (Mycobacterium tuberculosis, UniProt P9WQ59); test: Fluorescence polarization aasay to screen for inhibitors that compete for the binding of FadD28 to a bisubstrate Measured in Biochemical System Using Plate Reader - 2147-01_Inhibitor_Dose_CherryPick_Activity.; type: functional, Mycobacterium tuberculosis H37Rv
T1 sequence (P9WQ59 whole entry): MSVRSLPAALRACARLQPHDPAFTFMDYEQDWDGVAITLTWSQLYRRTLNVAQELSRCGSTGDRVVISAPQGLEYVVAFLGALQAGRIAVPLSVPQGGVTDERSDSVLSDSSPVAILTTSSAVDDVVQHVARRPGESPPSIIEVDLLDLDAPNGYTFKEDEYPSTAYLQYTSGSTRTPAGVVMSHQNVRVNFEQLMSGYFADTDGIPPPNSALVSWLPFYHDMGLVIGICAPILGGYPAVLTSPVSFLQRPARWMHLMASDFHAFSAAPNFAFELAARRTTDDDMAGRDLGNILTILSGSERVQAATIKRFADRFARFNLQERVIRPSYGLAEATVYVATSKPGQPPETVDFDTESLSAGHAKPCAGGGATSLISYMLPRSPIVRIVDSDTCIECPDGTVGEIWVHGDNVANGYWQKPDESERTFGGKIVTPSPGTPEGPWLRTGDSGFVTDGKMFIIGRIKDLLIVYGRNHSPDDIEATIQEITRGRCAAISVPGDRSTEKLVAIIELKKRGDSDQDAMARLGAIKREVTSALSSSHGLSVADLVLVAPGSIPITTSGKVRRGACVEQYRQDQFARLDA

Vero [3] = test: cells; type: functional; conditions: Chlorocebus sabaeus
Vero [4] = test: cells; type: functional, cell-based; conditions: Chlorocebus sabaeus
[5] = target: T2, Carboxy-terminal domain RNA polymerase II polypeptide A small phosphatase 1 (Homo sapiens, UniProt Q9GZU7); test: CTDSP1 inhibitors, concentration-response, biochemical, absorbance readout, ultra-high-throughput screen actives (AID 540297); type: functional
T2 sequence (Q9GZU7 whole entry): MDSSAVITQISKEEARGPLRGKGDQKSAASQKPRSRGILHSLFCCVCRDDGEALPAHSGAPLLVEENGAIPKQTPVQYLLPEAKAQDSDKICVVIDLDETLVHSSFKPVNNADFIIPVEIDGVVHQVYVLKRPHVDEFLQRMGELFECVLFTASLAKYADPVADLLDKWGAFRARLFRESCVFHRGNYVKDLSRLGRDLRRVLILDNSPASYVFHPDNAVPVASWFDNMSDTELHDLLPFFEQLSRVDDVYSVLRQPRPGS

[6] = target: T3, Low molecular weight phosphotyrosine protein phosphatase (Homo sapiens, UniProt P24666); type: functional; conditions: read-out: IC50_Mean;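 note: Dose-response confirmation assay measuring inhibition of LMPTP enzyme activity by fluorescence intensity read-out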
T3 sequence (P24666 whole entry): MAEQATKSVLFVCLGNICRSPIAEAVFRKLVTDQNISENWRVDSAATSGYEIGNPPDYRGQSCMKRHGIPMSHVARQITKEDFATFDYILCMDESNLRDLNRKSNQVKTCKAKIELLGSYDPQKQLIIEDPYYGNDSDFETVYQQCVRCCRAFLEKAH

Protein skinhead-1 = target: T4, Protein skinhead-1 (Caenorhabditis elegans, UniProt P34707); type: functional
T4 sequence (P34707 whole entry): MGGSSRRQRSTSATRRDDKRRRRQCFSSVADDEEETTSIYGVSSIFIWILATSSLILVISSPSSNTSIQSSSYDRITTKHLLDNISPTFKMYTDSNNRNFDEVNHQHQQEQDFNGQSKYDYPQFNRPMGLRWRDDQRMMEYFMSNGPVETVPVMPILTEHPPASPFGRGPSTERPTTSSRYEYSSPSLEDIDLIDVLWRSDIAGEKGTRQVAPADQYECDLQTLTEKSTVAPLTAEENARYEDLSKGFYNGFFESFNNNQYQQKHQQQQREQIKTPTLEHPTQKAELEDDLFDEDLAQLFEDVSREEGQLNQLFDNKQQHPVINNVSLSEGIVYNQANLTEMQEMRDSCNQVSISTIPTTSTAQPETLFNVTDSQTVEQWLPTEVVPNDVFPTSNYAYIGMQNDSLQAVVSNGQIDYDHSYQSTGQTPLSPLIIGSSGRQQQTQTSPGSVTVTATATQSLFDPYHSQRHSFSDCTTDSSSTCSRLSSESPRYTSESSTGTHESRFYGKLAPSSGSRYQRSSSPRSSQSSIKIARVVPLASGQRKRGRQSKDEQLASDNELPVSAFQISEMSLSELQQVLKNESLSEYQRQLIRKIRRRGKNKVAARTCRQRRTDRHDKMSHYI

Cytochrome P450 1A2 = target: T5, Cytochrome P450 1A2 (Homo sapiens, UniProt P05177);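 note: PubChem cytochrome P450 panel assay, CYP1A2 panel member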
T5 sequence (P05177 whole entry): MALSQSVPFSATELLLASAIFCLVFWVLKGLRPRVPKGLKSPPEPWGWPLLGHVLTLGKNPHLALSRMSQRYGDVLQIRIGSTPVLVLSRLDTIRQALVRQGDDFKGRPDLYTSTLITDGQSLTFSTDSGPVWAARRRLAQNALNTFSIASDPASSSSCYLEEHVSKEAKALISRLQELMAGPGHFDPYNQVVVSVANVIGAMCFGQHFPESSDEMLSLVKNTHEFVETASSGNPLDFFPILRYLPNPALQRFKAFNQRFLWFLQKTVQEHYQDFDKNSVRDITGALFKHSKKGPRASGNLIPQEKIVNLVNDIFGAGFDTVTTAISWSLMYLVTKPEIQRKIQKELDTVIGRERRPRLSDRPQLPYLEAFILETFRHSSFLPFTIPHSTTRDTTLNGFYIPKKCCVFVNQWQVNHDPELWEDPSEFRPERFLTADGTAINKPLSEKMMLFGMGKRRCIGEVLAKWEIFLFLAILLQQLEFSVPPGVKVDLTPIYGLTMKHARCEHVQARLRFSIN

[7] = target: T6, Heat shock factor protein 1 (Mus musculus, UniProt P38532); test: decrease of HSF1-responsive luciferase luminescence – cell-based, NIH3T3, dose retest, confirmation (AID 2382); type: functional;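 note: NIH3T3 fibroblasts with HSF1-driven luciferase reporter stressed by proteasome inhibitor MG132; luminescence from HSF1-driven luciferase expression after 8 hours of MG132 stress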
T6 sequence (P38532 whole entry): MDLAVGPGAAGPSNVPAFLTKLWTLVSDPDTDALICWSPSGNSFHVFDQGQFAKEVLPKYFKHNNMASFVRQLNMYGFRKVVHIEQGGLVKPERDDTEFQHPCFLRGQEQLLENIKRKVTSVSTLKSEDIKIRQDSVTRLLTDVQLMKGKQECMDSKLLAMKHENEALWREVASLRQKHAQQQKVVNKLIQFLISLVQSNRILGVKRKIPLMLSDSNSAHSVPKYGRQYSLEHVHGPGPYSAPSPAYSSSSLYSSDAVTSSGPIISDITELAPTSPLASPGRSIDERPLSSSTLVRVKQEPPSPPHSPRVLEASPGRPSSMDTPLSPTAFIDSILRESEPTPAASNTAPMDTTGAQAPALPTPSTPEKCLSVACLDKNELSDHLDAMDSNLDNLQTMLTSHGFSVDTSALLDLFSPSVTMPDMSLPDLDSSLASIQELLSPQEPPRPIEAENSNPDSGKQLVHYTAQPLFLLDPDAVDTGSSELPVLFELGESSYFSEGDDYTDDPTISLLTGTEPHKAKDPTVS

[8] = tested on: Streptococcus sp. 'group A'; test: Streptococcus pyogenes SK(-)GAS viability under kanamycin – luminescence, BacTiterGlo, confirmation, counter-screen for streptokinase expression inhibitor project, dose response (AID 1900); type: functional, organism-based
Streptokinase A = target: T7, Streptokinase A (Streptococcus pyogenes serotype M1, UniProt P10520); test: viability-normalized secreted streptokinase activity reduction – plasminogen activation absorbance, OD405, dose response (AID 1914); type: functional, Streptococcus pyogenes M1 GAS;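 note: secreted streptokinase activity via plasminogen activation per viability signal from cell pellet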
T7 sequence (P10520 whole entry): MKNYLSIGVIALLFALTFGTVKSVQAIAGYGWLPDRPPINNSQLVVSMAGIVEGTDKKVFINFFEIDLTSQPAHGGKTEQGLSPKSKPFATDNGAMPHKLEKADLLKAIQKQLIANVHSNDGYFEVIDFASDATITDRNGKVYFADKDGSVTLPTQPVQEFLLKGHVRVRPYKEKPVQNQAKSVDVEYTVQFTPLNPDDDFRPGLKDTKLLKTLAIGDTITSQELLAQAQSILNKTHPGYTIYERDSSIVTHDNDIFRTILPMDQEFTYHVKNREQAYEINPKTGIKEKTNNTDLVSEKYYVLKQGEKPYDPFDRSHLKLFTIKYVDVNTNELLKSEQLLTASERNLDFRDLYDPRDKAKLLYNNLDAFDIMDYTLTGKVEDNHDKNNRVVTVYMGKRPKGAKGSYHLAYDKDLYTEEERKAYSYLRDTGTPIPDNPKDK

Streptococcus = test: GAS UMAA2166 growth inhibition – luminescence, BacTiterGlo, counter-screen for streptokinase expression inhibitor project, dose response (AID 1915); type: functional, organism-based;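 note: potency for reduction of bacterial viability or growth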
Melanocortin receptor 4 = Melanocortin receptor 4 (Homo sapiens, UniProt P32245); type: functional, cell-based;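 note: Cell-based assay with luminescence read-out, confirmatory dose-response testing for agonist activity of biased ligands at MC4R; human U2OS cells with tagged receptor and beta-arrestin; potency of agonists that increase receptor coupling to beta-arrestin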
Chain of Melanocortin receptor 4 (P32245 whole entry): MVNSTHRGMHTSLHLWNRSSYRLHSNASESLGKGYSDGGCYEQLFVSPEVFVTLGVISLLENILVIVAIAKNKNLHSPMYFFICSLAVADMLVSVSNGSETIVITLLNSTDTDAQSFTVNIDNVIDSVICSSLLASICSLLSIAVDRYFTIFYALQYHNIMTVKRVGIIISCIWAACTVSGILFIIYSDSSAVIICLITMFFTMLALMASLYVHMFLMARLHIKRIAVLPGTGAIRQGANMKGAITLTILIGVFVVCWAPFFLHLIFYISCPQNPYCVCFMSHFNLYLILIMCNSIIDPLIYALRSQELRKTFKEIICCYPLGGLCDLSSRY

H9c2 = test: cells; type: functional, cell-based; conditions: Rattus norvegicus, H9c2, Myocardium;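 note: confirmatory concentration-response retest of ultra-high-throughput screening hits for modulation of myocardial damage; cell death induced by hydrogen peroxide oxidative stress; compound pretreatment for 60 min then peroxide exposure for 2 h; potency is for protecting the cells against peroxide damage rather than for killing them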
[9] = target: T6, Heat shock factor protein 1; test: enhancement of HSF1-driven luciferase signal – cell-based, NIH3T3, luminescence, dose retest, confirmation (AID 435004); type: functional;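 note: stress induced by proteasome inhibitor MG132 added 30 min after compound; luciferase reporter driven by HSF1 response element in NIH3T3 cells; actives raise luminescence as potentiators of the MG132 stress response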
[10] = Luminescence Cell-Based Dose Retest to Confirm Inhibitors of Cancer Stem Cells. [Related pubchem assays (depositor defined):AID2717, AID2721]; type: functional; conditions: Homo sapiens
Paired box protein Pax-8 = Paired box protein Pax-8 (Homo sapiens, UniProt Q06710); test: PAX8 transcriptional activity inhibition in RMG-I – RMG-I cells, luciferase, cherry-pick, dose response (AID 687027); type: functional, cell-based;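 note: luciferase reporter driven by Pax8 target thyroperoxidase promoter measured by SteadyGlo luminescence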
Chain of Paired box protein Pax-8 (Q06710 whole entry): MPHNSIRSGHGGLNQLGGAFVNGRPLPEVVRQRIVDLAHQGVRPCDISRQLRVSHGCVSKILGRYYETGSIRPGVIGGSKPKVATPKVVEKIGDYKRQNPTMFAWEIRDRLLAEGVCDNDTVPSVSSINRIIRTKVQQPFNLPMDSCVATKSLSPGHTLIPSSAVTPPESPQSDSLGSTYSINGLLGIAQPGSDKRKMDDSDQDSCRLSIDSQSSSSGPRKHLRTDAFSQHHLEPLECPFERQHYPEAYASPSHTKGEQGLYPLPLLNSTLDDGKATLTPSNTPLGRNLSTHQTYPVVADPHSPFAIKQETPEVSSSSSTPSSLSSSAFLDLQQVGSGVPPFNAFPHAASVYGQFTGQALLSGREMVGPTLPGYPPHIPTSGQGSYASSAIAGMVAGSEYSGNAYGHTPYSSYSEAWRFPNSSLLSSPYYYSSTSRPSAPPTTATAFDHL

[11] = HEK-293T viability loss after treatment – luminescence, T-cell screen hits, cytotoxicity control for TCR NF-kB inhibitor project, dose response (AID 489026); type: functional, cell-based;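 note: cells exposed to compound about 14 hours before the viability readout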

Chain of Mu-type opioid receptor (P35372 whole entry): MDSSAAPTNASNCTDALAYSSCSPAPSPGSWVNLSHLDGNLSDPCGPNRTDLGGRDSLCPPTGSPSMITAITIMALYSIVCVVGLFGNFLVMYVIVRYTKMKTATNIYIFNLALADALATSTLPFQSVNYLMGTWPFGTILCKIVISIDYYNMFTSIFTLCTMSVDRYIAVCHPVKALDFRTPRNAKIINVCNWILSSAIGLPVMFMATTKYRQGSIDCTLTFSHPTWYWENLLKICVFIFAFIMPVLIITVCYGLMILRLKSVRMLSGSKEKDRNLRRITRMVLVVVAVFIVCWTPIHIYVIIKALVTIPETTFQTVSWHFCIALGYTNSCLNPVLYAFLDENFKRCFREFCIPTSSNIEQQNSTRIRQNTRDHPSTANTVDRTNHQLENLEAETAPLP

With `O=C(CN1CCN(c2ccccn2)CC1)Nc1cccc(S(=O)(=O)N2CCCC2)c1` the EC50 (Mu-type opioid receptor) was 92.5 µM (inactive) and the EC50 [1] was 9.85 µM (active).

With `OC(COCc1ccc(Cl)cc1)CN1CCN(c2ccccn2)CC1` (configuration not stated) the EC50 (Mu-type opioid receptor) was 92.5 µM (inactive) and the EC50 [1] was 0.819 µM (active).

In the case of `Cc1c(Cl)c(S(N)(=O)=O)cc(S(N)(=O)=O)c1NC(=O)c1ccc(Cl)cc1`, the AC50 (Cytochrome P450 2C19) is reported as “inconclusive” and the AC50 (Cytochrome P450 2D6) is reported as “inconclusive”.

With `Brc1cccc(CN2CCN(c3ncccn3)CC2)c1` the EC50 (Mu-type opioid receptor) was 92.5 µM (inactive) and the EC50 [1] was 0.352 µM (active).

For `O=C(c1ccco1)N1CCN(Cc2ccc(Cl)cc2)CC1`, the EC50 (Mu-type opioid receptor) was 92.5 µM (inactive) and the EC50 [1] was 4.08 µM (active).

In the case of `Cc1ccc(C2CC(=O)N3CN(Cc4ccco4)CSC3=C2C#N)cc1` (configuration not stated), the AC50 [2] is reported as 82.5 µM (active).

For `COc1ccc(/C=C2\SC(=S)N(CCC(=O)NCCc3ccc(O)cc3)C2=O)cc1`, the CC50 (Vero [3]) was > 25 µM (active) and the IC50 (Vero [4]) was > 25 µM (active).

In the case of `COC(=O)COc1ccc2oc(=O)cc(-c3cc4cccc(OC)c4o3)c2c1`, the IC50 [5] is reported as 9.43 µM (active) and the IC50 [6] is reported as 19.1 µM (active).

In the case of `O=C(Nc1ccc(CN2CCOCC2)cc1)c1cc2ccccc2o1`, the IC50 (Protein skinhead-1) is reported as 15.4 µM (active).

With `CC(C)OC(=O)CSc1nnc(SCc2cccc3ccccc23)s1` the IC50 (Protein skinhead-1) was > 100 µM (inactive).

For `COc1ccc(CCn2c(=N)c(C(=O)NCc3ccco3)cc3c(=O)n4ccccc4nc32)cc1`, the IC50 [6] was 25.7 µM (inactive) and the AC50 (Cytochrome P450 1A2) was 15.8 µM (inconclusive).

In the case of `Cc1cccc(NC(=O)CN2C(=O)N/C(=C/c3cc(C)n(C(C)C)c3C)C2=O)c1`, the EC50 [7] is reported as > 195 µM (not active) and the AC50 [2] is reported as 7.01 µM (active).

In the case of `CCn1cc(CN2CCC(C(=O)Nc3ccc(Oc4cccnc4)cc3)CC2)cn1`, the AC50 [2] is reported as 37.3 µM (active), the EC50 [8] is reported as > 150 µM (not active) and the EC50 (Streptokinase A) is reported as > 150 µM (not active). For the same compound, the EC50 (Streptococcus) was > 150 µM (not active).

With `Fc1ccc2cc(-c3ccccc3)ncc2c1` the IC50 (Protein skinhead-1) was > 100 µM (inactive).

With `COc1cccc(C(=O)NNC(=O)CCN2CCN(c3ccccc3)CC2)c1` the EC50 (Mu-type opioid receptor) was 92.4 µM (inactive) and the EC50 [1] was 0.427 µM (active).

For `CC(=O)Nc1cc(-c2cccc(F)c2)cn2c(-c3ccc(F)c(Cl)c3)cnc12`, the EC50 (Melanocortin receptor 4) was > 89.2 µM (inactive).

In the case of `COc1ccc(-c2cc(NC(C)=O)c3ncc(-c4cccc(C(C)=O)c4)n3c2)cc1OC`, the EC50 (Melanocortin receptor 4) is reported as > 89.2 µM (inactive) and the IC50 (H9c2) is reported as > 79 µM (inactive).

In the case of `Cc1cc(C)nc(Nc2nc(C(N)Cc3ccc(Cl)cc3)cs2)n1` (configuration not stated), the EC50 (Melanocortin receptor 4) is reported as > 89.2 µM (inactive).

For `Sc1nnc(-c2ccccc2)n1/N=C/c1ccc(-c2ccccc2Cl)o1`, the EC50 [9] was > 260 µM (inactive), the AC50 [10] was 4 µM (active) and the IC50 (Vero [4]) was 2.17 µM (active).

For `O=C(N/N=C/C=C/c1ccccc1)c1cc2c(ccc3ccccc32)o1`, the IC50 [6] was 9.73 µM (active) and the AC50 (Cytochrome P450 1A2) was 0.0447 µM (inconclusive).

With `C[C@]12CC[C@H](O)C[C@H]1CC[C@@H]1[C@@H]2CC[C@]2(C)[C@@H](C3=CC(=O)OC3)CC[C@]12O` [DIGITOXIGENIN] the AC50 (Paired box protein Pax-8) was 1.38 µM (active), the CC50 (Vero [3]) was 1.45 µM (active) and the AC50 [10] was 0.467 µM (active). For the same compound, the IC50 (Vero [4]) was < 0.05 µM (active) and the IC50 [11] was > 80 µM (inactive).
